Experimental data from patent US20260000692A1, “Substituted N-(Pyridin-2-yl)Acetamide Derivatives as CDK12/13 Inhibitors” (Aurigene Oncology Limited, priority 2022, published 2026).
Like-named read-outs stand apart in the source and are kept apart here.

Biological target: CDK12 (Homo sapiens, UniProt Q9NYV4)
Test: Biochemical assay for CDK12 (LANCE TR-FRET, IC50 determination)
Details: for IC50: CDK12, IC50 class; for inhibition at 10 µM: read-out: CDK12 % Inhibition @ 10 μM
Outline: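 30 nM CDK12 phosphorylated 100 nM ULight-4E-BP1 (Thr37/Thr46) peptide at 100 µM ATP, as printed, in HEPES pH 7.5 buffer with MgCl2 and DTT. Compound and enzyme were preincubated 60 min, then reacted 60 min at room temperature before stopping with EDTA and Eu anti-phospho antibody. TR-FRET 665/615 ratio gave sigmoidal IC50 fits.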

Chain of CDK12 (Q9NYV4 whole entry): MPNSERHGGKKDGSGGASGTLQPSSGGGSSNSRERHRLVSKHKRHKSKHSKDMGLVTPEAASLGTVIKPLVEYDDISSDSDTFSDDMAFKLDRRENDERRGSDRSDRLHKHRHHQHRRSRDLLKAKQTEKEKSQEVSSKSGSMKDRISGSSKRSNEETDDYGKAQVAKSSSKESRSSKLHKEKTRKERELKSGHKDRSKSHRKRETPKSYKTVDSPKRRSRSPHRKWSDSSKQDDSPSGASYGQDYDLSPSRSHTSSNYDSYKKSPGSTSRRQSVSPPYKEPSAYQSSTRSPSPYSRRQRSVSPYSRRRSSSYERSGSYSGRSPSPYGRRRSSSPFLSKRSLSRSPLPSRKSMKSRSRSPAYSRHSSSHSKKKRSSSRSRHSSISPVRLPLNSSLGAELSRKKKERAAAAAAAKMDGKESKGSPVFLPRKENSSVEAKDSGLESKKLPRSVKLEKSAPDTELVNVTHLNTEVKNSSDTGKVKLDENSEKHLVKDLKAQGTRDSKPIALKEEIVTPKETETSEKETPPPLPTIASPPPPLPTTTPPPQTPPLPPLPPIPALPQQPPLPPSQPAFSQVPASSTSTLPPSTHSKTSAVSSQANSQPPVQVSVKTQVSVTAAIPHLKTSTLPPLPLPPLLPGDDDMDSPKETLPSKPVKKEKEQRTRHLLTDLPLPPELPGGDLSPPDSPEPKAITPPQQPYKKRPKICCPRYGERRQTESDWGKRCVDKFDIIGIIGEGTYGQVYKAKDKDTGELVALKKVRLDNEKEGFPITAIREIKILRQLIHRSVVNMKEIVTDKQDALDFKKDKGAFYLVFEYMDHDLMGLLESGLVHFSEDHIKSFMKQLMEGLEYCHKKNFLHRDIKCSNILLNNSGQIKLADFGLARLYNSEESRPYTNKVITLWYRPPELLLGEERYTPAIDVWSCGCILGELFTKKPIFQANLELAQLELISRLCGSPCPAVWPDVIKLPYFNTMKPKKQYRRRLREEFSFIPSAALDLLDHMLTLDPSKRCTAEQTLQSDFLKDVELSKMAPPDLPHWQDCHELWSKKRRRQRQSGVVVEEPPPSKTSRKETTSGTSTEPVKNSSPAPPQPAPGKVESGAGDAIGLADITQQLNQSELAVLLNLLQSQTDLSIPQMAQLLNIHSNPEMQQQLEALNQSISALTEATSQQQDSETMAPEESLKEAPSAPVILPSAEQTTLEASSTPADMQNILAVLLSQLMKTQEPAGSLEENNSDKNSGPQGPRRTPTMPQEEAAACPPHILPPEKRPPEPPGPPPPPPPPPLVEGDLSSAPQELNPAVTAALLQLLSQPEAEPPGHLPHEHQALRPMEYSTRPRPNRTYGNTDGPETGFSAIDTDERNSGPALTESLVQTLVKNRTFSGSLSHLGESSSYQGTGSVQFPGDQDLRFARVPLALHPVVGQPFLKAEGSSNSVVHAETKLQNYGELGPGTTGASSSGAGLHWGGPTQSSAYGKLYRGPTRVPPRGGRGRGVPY
Chain of CDK12 (O75909 whole entry partner): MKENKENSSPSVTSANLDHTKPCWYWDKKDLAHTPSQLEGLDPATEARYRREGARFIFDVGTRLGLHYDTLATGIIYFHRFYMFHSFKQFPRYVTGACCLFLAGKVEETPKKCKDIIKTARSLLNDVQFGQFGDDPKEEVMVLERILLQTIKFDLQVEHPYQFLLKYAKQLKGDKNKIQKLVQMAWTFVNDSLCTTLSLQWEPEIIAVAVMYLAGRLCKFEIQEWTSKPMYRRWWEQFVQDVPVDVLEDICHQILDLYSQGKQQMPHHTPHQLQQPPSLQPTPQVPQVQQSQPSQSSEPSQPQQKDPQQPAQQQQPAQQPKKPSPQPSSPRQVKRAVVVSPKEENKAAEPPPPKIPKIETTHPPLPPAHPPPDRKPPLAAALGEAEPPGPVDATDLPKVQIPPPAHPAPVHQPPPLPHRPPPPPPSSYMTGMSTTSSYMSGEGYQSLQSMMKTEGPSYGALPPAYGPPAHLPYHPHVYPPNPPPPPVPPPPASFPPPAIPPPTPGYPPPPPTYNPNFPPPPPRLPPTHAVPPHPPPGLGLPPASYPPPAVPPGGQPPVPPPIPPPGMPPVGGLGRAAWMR

| IC50 (read-out: IC50 μM (in range)) | inhibition at 10 µM (compound at 10 μM) | CDK12 % Inhibition @ 10 μM (compound at 10 μM, 10 µM) | Compound | IC50 (IC50 μM (in range)) | inhibition at 10 µM |
| --- | --- | --- | --- | --- | --- |
|  |  |  | CN(C)C(=O)Oc1cc(NC(=O)Cc2ccc(C3=CCCN(C#N)C3)nc2)ncc1Cl [Compound 77, 5-chloro-2-(2-(1′-cyano-1′,2′,5′,6′-tetrahydro-[2,3′-bipyridin]-5-yl)acetamido)pyridin-4-yl dimethylcarbamate] | < 0.01 µM | 79% |
| 0.01 to 0.1 µM | 87% |  | N#CN1CCC(c2ccc(CC(=O)Nc3cc(O[C@@H]4CCOC4)c(Cl)cn3)cn2)CC1 [Compound 98, (R)-N-(5-chloro-4-((tetrahydrofuran-3-yl)oxy)pyridin-2-yl)-2-(6-(1-cyanopiperidin-4-yl)pyridin-3-yl)acetamide] |  |  |
| < 0.01 µM | 86% |  | COc1cc(CC(=O)Nc2cc(O[C@@H]3CCOC3)c(Cl)cn2)cnc1C1CCN(C#N)CC1 [Compound 123, (R)-N-(5-chloro-4-((tetrahydrofuran-3-yl)oxy)pyridin-2-yl)-2-(6-(1-cyanopiperidin-4-yl)-5-methoxypyridin-3-yl)acetamide] |  |  |
| < 0.01 µM | 83% |  | CNC(=O)[C@H](C)Oc1cc(NC(=O)Cc2cnc(C3CCN(C#N)CC3)c(OC)c2)ncc1Cl [Compound 128, (S)-2-((5-chloro-2-(2-(6-(1-cyanopiperidin-4-yl)-5-methoxypyridin-3-yl)acetamido)pyridin-4-yl)oxy)-N-methylpropanamide] |  |  |
| < 0.01 µM | 96% |  | COc1cc(NC(=O)Cc2ccc(C3=CC4CN(C#N)CC4C3)nc2)ncc1Cl (stereo not shown) [Compound 75, N-(5-chloro-4-methoxypyridin-2-yl)-2-(6-(2-cyano-1,2,3,3a,4,6a-hexahydrocyclopenta[c]pyrrol-5-yl)pyridin-3-yl)acetamide] |  |  |
| 0.01 to 0.1 µM | 90% |  | COc1cc(NC(=O)Cc2ccc(-c3cc(OCCN(C)C)cc(C#N)n3)nc2)ncc1Cl [Compound 170, N-(5-chloro-4-methoxypyridin-2-yl)-2-(6′-cyano-4′-(2-(dimethylamino)ethoxy)-[2,2′-bipyridin]-5-yl)acetamide] |  |  |
| 0.01 to 0.1 µM | 80% |  | COc1cc(NC(=O)Cc2ccc(-c3cc(OC4COC4)cc(C#N)n3)nc2)ncc1Cl [Compound 184, N-(5-chloro-4-methoxypyridin-2-yl)-2-(6′-cyano-4′-(oxetan-3-yloxy)-[2,2′-bipyridin]-5-yl)acetamide] |  |  |
| 0.01 to 0.1 µM | 89% |  | CNC(=O)[C@H](C)Oc1cc(NC(=O)Cc2ccc(-c3ccnc(C#N)c3)nc2)ncc1Cl [Compound 148, (S)-2-((5-chloro-2-(2-(2′-cyano-[2,4′-bipyridin]-5-yl)acetamido)pyridin-4-yl)oxy)-N-methylpropanamide] |  |  |
| < 0.01 µM | 92% |  | CC1CC(Oc2cc(NC(=O)Cc3ccc(C4=CCCN(C#N)C4)nc3)ncc2Cl)CCN1C (single isomer, unassigned) [Compound 64, N-(5-chloro-4-((1,2-dimethylpiperidin-4-yl)oxy)pyridin-2-yl)-2-(1′-cyano-1′,2′,5′,6′-tetrahydro-[2,3′-bipyridin]-5-yl)acetamide] |  |  |
|  | 64% |  | CN1CCN(c2cc(NC(=O)Cc3ccc(C4=CCN(C#N)CC4)nc3)ncc2Cl)CC1 [Compound 9, N-(5-chloro-4-(4-methylpiperazin-1-yl)pyridin-2-yl)-2-(1′-cyano-1′,2′,3′,6′-tetrahydro-[2,4′-bipyridin]-5-yl)acetamide] |  |  |
| < 0.01 µM | 87% |  | N#CN1CCC=C(c2ccc(CC(=O)Nc3cc(OC4CCCOC4)c(Cl)cn3)cn2)C1 (stereo not shown) [Compound 43, N-(5-chloro-4-((tetrahydro-2H-pyran-3-yl)oxy)pyridin-2-yl)-2-(1′-cyano-1′,2′,5′,6′-tetrahydro-[2,3′-bipyridin]-5-yl)acetamide] |  |  |
| < 0.01 µM | 92% |  | CC1CC(Oc2cc(NC(=O)Cc3ccc(C4=CCCN(C#N)C4)nc3)ncc2Cl)CCN1C (stereo not shown) [Compound 63, N-(5-chloro-4-((1,2-dimethylpiperidin-4-yl)oxy)pyridin-2-yl)-2-(1′-cyano-1′,2′,5′,6′-tetrahydro-[2,3′-bipyridin]-5-yl)acetamide] |  |  |
| < 0.01 µM |  | 92% | COc1cc(NC(=O)Cc2ccc(C3=CCN(C#N)CC3C)nc2)ncc1Cl (single isomer, unassigned) [Compound 72, N-(5-chloro-4-methoxypyridin-2-yl)-2-(1′-cyano-3′-methyl-1′,2′,3′,6′-tetrahydro-[2,4′-bipyridin]-5-yl)acetamide] |  |  |
| < 0.01 µM | 96% |  | N#CN1CC=C(c2ccc(CC(=O)Nc3cc(OC4COC4)c(Cl)cn3)cn2)CC1 [Compound 15, N-(5-chloro-4-(oxetan-3-yloxy)pyridin-2-yl)-2-(1′-cyano-1′,2′,3′,6′-tetrahydro-[2,4′-bipyridin]-5-yl)acetamide] |  |  |
| < 0.01 µM | 90% |  | COc1cc(CC(=O)Nc2cc(O[C@@H]3CCOC3)c(Cl)cn2)cnc1C1=CCN(C#N)CC1 [Compound 122, (R)-N-(5-chloro-4-((tetrahydrofuran-3-yl)oxy)pyridin-2-yl)-2-(1′-cyano-3-methoxy-1′,2′,3′,6′-tetrahydro-[2,4′-bipyridin]-5-yl)acetamide] |  |  |
| < 0.01 µM | 89% |  | COc1cc(NC(=O)Cc2ccc(C3CCN(C#N)CC3)nc2)ncc1Cl [Compound 59, N-(5-chloro-4-methoxypyridin-2-yl)-2-(6-(1-cyanopiperidin-4-yl)pyridin-3-yl)acetamide] |  |  |
| 0.01 to 0.1 µM | 87% |  | COc1cc(NC(=O)Cc2ccc(C3CCN(C#N)CC3C)nc2)ncc1Cl (stereo not shown) [Compound 60, N-(5-chloro-4-methoxypyridin-2-yl)-2-(6-(1-cyano-3-methylpiperidin-4-yl)pyridin-3-yl)acetamide] |  |  |
| > 0.1 µM | 79% |  | COc1cc(NC(=O)Cc2ccc(C3CCCN(C#N)C3)nc2)ncc1Cl (single isomer, unassigned) [Compound 79, N-(5-chloro-4-methoxypyridin-2-yl)-2-(6-(1-cyanopiperidin-3-yl)pyridin-3-yl)acetamide] |  |  |
| 0.01 to 0.1 µM | 87% |  | N#CN1CC=C(c2ncc(CC(=O)Nc3ccc(Cl)cn3)cc2F)CC1 [Compound 18, N-(5-chloropyridin-2-yl)-2-(1′-cyano-3-fluoro-1′,2′,3′,6′-tetrahydro-[2,4′-bipyridin]-5-yl)acetamide] |  |  |
| > 0.1 µM | 86% |  | CN1CCCC1COc1cc(NC(=O)Cc2ccc(C3=CCCN(C#N)C3)nc2)ncc1Cl (stereo not shown) [Compound 55, N-(5-chloro-4-((1-methylpyrrolidin-2-yl)methoxy)pyridin-2-yl)-2-(1′-cyano-1′,2′,5′,6′-tetrahydro-[2,3′-bipyridin]-5-yl)acetamide] |  |  |
| < 0.01 µM | 87% |  | CNC(=O)[C@H](C)Oc1cc(NC(=O)Cc2ccc(-c3cccc(C#N)n3)nc2)ncc1Cl [Compound 190, 2-((5-chloro-2-(2-(6′-cyano-[2,2′-bipyridin]-5-yl)acetamido)pyridin-4-yl)oxy)-N-methylpropanamide] |  |  |

| Compound | IC50 (read-out: IC50 μM (in range)) | inhibition at 10 µM (compound at 10 μM) | CDK12 % Inhibition @ 10 μM (compound at 10 μM, 10 µM) | IC50 (IC50 μM (in range)) | inhibition at 10 µM |
| --- | --- | --- | --- | --- | --- |
| COc1cc(NC(=O)Cc2ccc(C3CC4CCC(C3)N4C#N)nc2)ncc1Cl (stereo not shown) [Compound 74, N-(5-chloro-4-methoxypyridin-2-yl)-2-(6-(8-cyano-8-azabicyclo[3.2.1]octan-3-yl)pyridin-3-yl)acetamide] | < 0.01 µM | 100% |  |  |  |
